What all share (experiment): ≥ marks a high value that may be exact or a test limit, other limits are often not marked, values filed in µg/mL are converted to µM
Assay [1] has as its system Pseudomonas aeruginosa ATCC 9027.
In assay [2] the test system is Staphylococcus aureus ATCC 6538.
In assay [3] the test system is Escherichia coli.
For assay [4], the system named is Bacillus cereus.
Assay [5] concerns Staphylococcus aureus.
The subject of assay [6] is Escherichia coli ATCC 25922.
Assay [7] deals with Klebsiella pneumoniae ATCC 700603.
For assay [8], the system named is Candida albicans ATCC 2002.
Assay [9] has as its system Staphylococcus aureus ATCC 25923.
Assay [10] concerns Pseudomonas aeruginosa ATCC 27853.
Assay [11] concerns Candida albicans ATCC 10231.
For assay [12], the system named is Staphylococcus aureus ATCC 29213.

≈ marks a conversion by molar mass, not a printed value.

As for `CC(C)C[C@H](NC(=O)[C@H](C)NC(=O)[C@H](CC(C)C)NC(=O)[C@H](CCCCN)NC(=O)[C@H](C)NC(=O)[C@H](CC(C)C)NC(=O)[C@H](CCCCN)NC(=O)[C@H](CCCCN)NC(=O)[C@H](C)NC(=O)[C@H](CC(C)C)NC(=O)[C@H](CCCCN)NC(=O)[C@H](CCCCN)NC(=O)[C@H](C)NC(=O)[C@@H](N)Cc1ccccc1)C(N)=O` [FAKKLAKKLAKLAL], the minimal inhibitory concentration (MIC) in assay [1] was determined as 64.8 µM (≈ 99.9 µg/mL); in assay [2] it was 3.24 µM (≈ 5 µg/mL).

As to `CC(C)C[C@H](NC(=O)[C@H](C)NC(=O)[C@H](CCCCN)NC(=O)[C@H](C)NC(=O)[C@H](CC(C)C)NC(=O)[C@H](CCCCN)NC(=O)[C@H](CCCCN)NC(=O)[C@H](C)NC(=O)[C@H](CC(C)C)NC(=O)[C@H](CCCCN)NC(=O)[C@H](C)NC(=O)[C@H](CC(C)C)NC(=O)[C@H](CCCCN)NC(=O)[C@H](CCCCN)NC(=O)[C@H](C)NC(=O)[C@@H](N)Cc1ccccc1)C(N)=O` [FAKKLAKLAKKLAKAL], the minimum inhibitory concentration (MIC) in [1] was 115 µM (≈ 200 µg/mL); in [2], greater than 115 µM.

For the compound `CC(C)C[C@H](NC(=O)[C@H](CCCCN)NC(=O)[C@H](CC(C)C)NC(=O)[C@H](CCCCN)NC(=O)[C@H](CC(C)C)NC(=O)[C@H](C)NC(=O)[C@H](CCCCN)NC(=O)[C@H](C)NC(=O)[C@H](CC(C)C)NC(=O)[C@H](CC(C)C)NC(=O)[C@H](CCCCN)NC(=O)[C@H](C)NC(=O)[C@@H](N)Cc1ccccc1)C(N)=O` [FAKLLAKALKLKL], the minimum inhibitory concentration (MIC) was determined as 17.2 µM (≈ 25 µg/mL) in assay [1] and 6.86 µM (≈ 9.99 µg/mL) in [2].

On to `CC(C)C[C@H](NC(=O)[C@H](CCCCN)NC(=O)[C@H](C)NC(=O)[C@H](CC(C)C)NC(=O)[C@H](CC(C)C)NC(=O)[C@H](CCCCN)NC(=O)[C@H](C)NC(=O)[C@@H](N)Cc1ccccc1)C(=O)N[C@@H](C)C(=O)N[C@@H](CCCCN)C(=O)N[C@@H](C)C(=O)N[C@@H](CCCCN)C(=O)N[C@@H](C)C(N)=O` [FAKLLAKLAKAKA], for which the MIC in assay [1] stood at 146 µM (≈ 200 µg/mL); in assay [2], 72.8 µM (≈ 99.9 µg/mL).

For the compound `CC(C)C[C@H](NC(=O)[C@H](C)NC(=O)[C@H](CCCCN)NC(=O)[C@H](CCCCN)NC(=O)[C@H](CC(C)C)NC(=O)[C@H](C)NC(=O)[C@H](CCCCN)NC(=O)[C@H](Cc1ccccc1)NC(=O)[C@H](CC(C)C)NC(=O)[C@H](CC(C)C)NC(=O)[C@H](CCCCN)NC(=O)[C@H](C)NC(=O)[C@@H](N)Cc1ccccc1)C(N)=O` [FAKLLFKALKKAL], the results for the MIC in assay [1] and in [2] were 134 µM (≈ 200 µg/mL) and 33.5 µM (≈ 50 µg/mL), respectively.

In the case of `CC[C@H](C)[C@H](NC(=O)[C@@H](NC(=O)[C@@H](NC(=O)[C@H](CCCCN)NC(=O)[C@@H](N)Cc1ccccc1)C(C)C)C(C)C)C(=O)N[C@@H](CO)C(=O)N[C@@H](CCCCN)C(=O)N1CCC[C@H]1C(=O)NCC(=O)N[C@@H](CC(C)C)C(=O)N[C@@H](CO)C(=O)N[C@H](C(=O)N[C@@H](CCCN=C(N)N)C(=O)N[C@H](C(=O)NCC(=O)N[C@H](C(=O)N[C@@H](C)C(=O)N[C@@H](CC(C)C)C(=O)N[C@H](C(=O)N[C@H](C(=O)O)[C@@H](C)O)C(C)C)[C@@H](C)O)C(C)C)C(C)C` [FKVVISKPGLSVRVGTALVT], the results for the MIC in [3] and in [4] were greater than 61.8 µM and no less than 61.8 µM, respectively.

For `CC(C)C[C@H](NC(=O)[C@@H](N)Cc1ccccc1)C(=O)NCC(=O)N[C@@H](CCCCN)C(=O)N[C@H](C(=O)N[C@@H](Cc1ccccc1)C(=O)N[C@@H](CCCCN)C(=O)NCC(=O)N[C@@H](C)C(=O)N[C@@H](CO)C(=O)N[C@@H](CCCCN)C(=O)N[C@H](C(=O)N[C@H](C(=O)N1CCC[C@H]1C(=O)N[C@@H](C)C(=O)N[C@H](C(=O)N[C@@H](Cc1ccccc1)C(=O)NCC(=O)N[C@@H](CCCCN)C(=O)N[C@H](C(=O)O)C(C)C)C(C)C)C(C)C)C(C)C)C(C)C` [FLGKVFKGASKVVPAVFGKV], the minimal inhibitory concentration (MIC) in assay [3] was greater than 123 µM; in assay [5] it was greater than 123 µM; in assay [4], no less than 123 µM.

As to `CC[C@H](C)[C@H](NC(=O)[C@@H](NC(=O)[C@@H]1CCCN1C(=O)[C@@H](NC(=O)[C@@H]1CCCN1C(=O)[C@H](CCCCN)NC(=O)[C@H](CCCCN)NC(=O)[C@H](CO)NC(=O)CN)C(C)C)[C@@H](C)CC)C(=O)N[C@@H](Cc1ccc(O)cc1)C(=O)N[C@H]1CSSC[C@@H](C(=O)N[C@@H](CCC(N)=O)C(=O)N[C@@H](CCCN=C(N)N)C(=O)N[C@@H](CCSC)C(=O)O)NC(=O)[C@H](CCCCN)NC(=O)CNC(=O)[C@H](CO)NC(=O)[C@H](CCCN=C(N)N)NC(=O)[C@H](CCCN=C(N)N)NC(=O)[C@H](CCC(N)=O)NC1=O` [GSKKPVPIIYCQRRSGKCQRM], the MIC in assay [6] and in [7] was 13.1 µM (≈ 32 µg/mL) throughout.

Take `CC[C@H](C)[C@H](NC(=O)[C@H](CCSC)NC(=O)[C@H](CO)NC(=O)[C@@H](NC(=O)[C@H](CC(C)C)NC(=O)[C@H](CO)NC(=O)[C@@H]1CCCN1C(=O)[C@@H](NC(=O)[C@@H](NC(=O)[C@H](CCCCN)NC(=O)[C@H](CO)NC(=O)[C@H](C)NC(=O)[C@@H](NC(=O)[C@H](CCCN=C(N)N)NC(=O)CNC(=O)[C@@H](NC(=O)[C@H](Cc1ccccc1)NC(=O)[C@H](CO)NC(=O)[C@@H](N)CC(C)C)C(C)C)C(C)C)C(C)C)C(C)C)[C@@H](C)CC)C(=O)N[C@@H](CCCCN)C(=O)O` [LSFVGRVASKVVPSLISMIK]: the minimal inhibitory concentration (MIC) in [3] was 120 µM (≈ 256 µg/mL); in [4], no less than 120 µM.

With `CC[C@H](C)[C@H](NC(=O)[C@H](C)NC(=O)[C@H](CCCN=C(N)N)NC(=O)[C@H](Cc1ccc(O)cc1)NC(=O)[C@H](CC(C)C)NC(=O)[C@H](CC(N)=O)NC(=O)[C@H](Cc1ccc(O)cc1)NC(=O)CNC(=O)[C@H](C)NC(=O)[C@@H](NC(=O)[C@@H](NC(=O)[C@@H](NC(=O)[C@H](CCCN=C(N)N)NC(=O)[C@@H](NC(=O)[C@@H](NC(=O)[C@@H](NC(=O)[C@@H]1CCCN1)C(C)C)C(C)C)[C@@H](C)CC)[C@@H](C)O)C(C)C)C(C)C)C(=O)N[C@@H](CCCCN)C(=O)N[C@@H](CCCCN)C(=O)N[C@@H](CCCCN)C(=O)O` [PVVIRTVVAGYNLYRAIKKK], the minimal inhibitory concentration (MIC) was found to be 16.4 µM (≈ 37.5 µg/mL) in assay [8] and 43.7 µM (≈ 100 µg/mL) in assay [9].

On to `CC[C@H](C)[C@H](NC(=O)[C@H](CCC(=O)O)NC(=O)[C@H](CCC(=O)O)NC(=O)[C@H](CO)NC(=O)[C@H](CC(C)C)NC(=O)[C@H](CC(C)C)NC(=O)[C@H](Cc1c[nH]c2ccccc12)NC(=O)[C@H](CC(N)=O)NC(=O)[C@H](CCC(=O)O)NC(=O)CNC(=O)[C@H](CC(N)=O)NC(=O)[C@H](CCCCN)NC(=O)[C@H](CC(C)C)NC(=O)[C@H](CO)NC(=O)[C@H](Cc1ccc(O)cc1)NC(=O)[C@@H]1CCCN1)C(=O)N[C@H](C(=O)N[C@@H](CCCN=C(N)N)C(=O)N[C@@H](Cc1ccc(O)cc1)C(=O)N1CCC[C@H]1C(=O)O)[C@@H](C)CC` [PYSLKNGENWLLSEEIIRYP], for which the minimal inhibitory concentration (MIC) in assay [3] is greater than 106 µM; in assay [4], no less than 106 µM.

As for `CSCC[C@H](NC(=O)[C@H](CO)NC(=O)[C@H](Cc1ccccc1)NC(=O)[C@@H](NC(=O)[C@H](C)NC(=O)[C@@H]1CCCN1C(=O)[C@H](Cc1ccccc1)NC(=O)[C@@H](NC(=O)[C@H](CCCCN)NC(=O)[C@H](CO)NC(=O)[C@H](C)NC(=O)[C@H](CC(C)C)NC(=O)[C@H](CCCCN)NC(=O)CNC(=O)[C@@H](NC(=O)[C@H](C)NC(=O)[C@@H](N)CO)C(C)C)C(C)C)C(C)C)C(=O)N[C@H](C(=O)N[C@H](C(=O)N[C@@H](CCCCN)C(=O)O)[C@@H](C)O)C(C)C` [SAVGKLASKVFPAVFSMVTK], the results for the minimum inhibitory concentration (MIC) in assay [3] and in assay [4] were greater than 124 µM and no less than 124 µM, respectively.

With `CC[C@H](C)[C@H](NC(=O)[C@@H]1CCCN1C(=O)[C@@H](NC(=O)[C@H](CO)NC(=O)[C@H](CO)NC(=O)[C@@H](N)CO)[C@@H](C)CC)C(=O)N[C@@H](CCCCN)C(=O)N[C@@H](CCSC)C(=O)N[C@H](C(=O)N[C@@H](CC(C)C)C(=O)N[C@H](C(=O)N[C@@H](CCCN=C(N)N)C(=O)N[C@@H](C)C(=O)N[C@@H](CC(C)C)C(=O)N[C@H](C(=O)N[C@@H](Cc1ccccc1)C(=O)N[C@H](C(=O)N[C@@H](CCCCN)C(=O)N[C@@H](CO)C(=O)NCC(=O)O)C(C)C)C(C)C)C(C)C)C(C)C` [SSSIPIKMVLVRALVFVKSG], the MIC in assay [3] was greater than 120 µM; in [4], no less than 120 µM.

Turning to `CC[C@H](C)[C@H](NC(=O)[C@@H]1CCCN1C(=O)[C@H](CO)NC(=O)[C@@H](NC(=O)[C@@H](NC(=O)[C@@H](NC(=O)[C@H](C)NC(=O)[C@H](CC(C)C)NC(=O)[C@H](CCCCN)NC(=O)[C@H](CO)NC(=O)[C@H](C)NC(=O)[C@@H](NC(=O)[C@H](CCCCN)NC(=O)[C@@H](NC(=O)[C@@H](NC(=O)[C@@H](N)CO)[C@@H](C)O)C(C)C)C(C)C)C(C)C)C(C)C)C(C)C)C(=O)N[C@@H](CO)C(=O)N[C@@H](CCCCN)C(=O)NCC(=O)N[C@@H](CO)C(=O)O` [STVKVASKLAVVVSPISKGS], the MIC in assay [3] is greater than 131 µM; in assay [4] it was no less than 131 µM.

Take `CC(C)C[C@H](NC(=O)[C@H](CCCCN)NC(=O)[C@H](Cc1ccccc1)NC(=O)[C@H](CC(C)C)NC(=O)[C@H](CC(C)C)NC(=O)CNC(=O)[C@H](CCCCN)NC(=O)[C@H](CC(C)C)NC(=O)[C@H](CCCCN)NC(=O)[C@@H]1CCCN1C(=O)[C@H](CC(C)C)NC(=O)[C@H](CC(C)C)NC(=O)[C@H](CC(C)C)NC(=O)[C@H](CCCCN)NC(=O)[C@H](CC(C)C)NC(=O)[C@H](CC(C)C)NC(=O)[C@H](CCCCN)NC(=O)[C@@H](N)Cc1ccc(O)cc1)C(N)=O` [YKLLKLLLPKLKGLLFKL]: the minimal inhibitory concentration (MIC) in assay [10] was 3.96 µM (≈ 8.48 µg/mL); in assay [11], 69.6 µM (≈ 149 µg/mL); in [12], 1.14 µM (≈ 2.45 µg/mL).
